Measurements reported in patent US20110269758A1, “NAPHTHYRIDINONES AS PROTEIN KINASE INHIBITORS” (MERCK PATENT GMBH, priority 2008, published 2011).

Experiments:
[1] = tested on: leukemia, colon and pancreatic tumors; settings: variety of in vivo xenograft models, well-tolerated doses; cited from earlier work
human tumor types = settings: diverse range of human tumor types; cited from earlier work
[2] = tested on: tumor cells of various origins; settings: cited from earlier work
[3] = tested on: cyclin-dependent kinases (CDKs) and Aurora kinases; settings: cited from earlier work
Aurora Kinase A = biological target: T1, Aurora Kinase A (Homo sapiens, UniProt O14965); experiment: Biochemical enzyme assay for Aurora A activity (Caliper LC3000 / Desktop Profiler mobility shift); settings: GST-Aurora A, 15 μM ATP, 90 min at 25° C.; LC3000 or Desktop Profiler; read-out: Aurora Kinase A IC50
T1 construct: full length Aurora A (1-403 amino acids); purchased Carna Biosciences 05-101
T1 sequence (O14965 1-403): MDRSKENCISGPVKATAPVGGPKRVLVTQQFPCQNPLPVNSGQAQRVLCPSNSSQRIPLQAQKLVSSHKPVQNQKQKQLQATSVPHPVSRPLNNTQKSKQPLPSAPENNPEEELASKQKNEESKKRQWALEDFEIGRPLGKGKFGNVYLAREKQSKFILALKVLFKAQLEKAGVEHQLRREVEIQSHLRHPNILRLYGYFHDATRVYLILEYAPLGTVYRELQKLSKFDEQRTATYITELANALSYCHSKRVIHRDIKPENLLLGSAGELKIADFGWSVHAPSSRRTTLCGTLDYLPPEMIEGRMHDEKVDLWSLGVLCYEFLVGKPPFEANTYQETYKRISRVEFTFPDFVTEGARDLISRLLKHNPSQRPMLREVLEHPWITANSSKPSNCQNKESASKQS
Protocol: (§1) The Aurora assays described here were performed on two Caliper Life Sciences systems, the LC3000 and the Desktop Profiler. These provide data on enzyme activity via measurement of the relative amounts of phosphorylated or unphosphorylated fluorescently labelled substrate peptide at the end of an enzymatic reaction. These different states of peptide are resolved by applying a potential difference across the sample. The presence of a charged phosphate group on the product (as opposed to the substrate) causes a different peptide mobility between the two peptides. This is visualized by excitation of a fluorescent label on the substrate and product peptides and represented as peaks within the analysis software.
In order to measure inhibitor activity of Aurora A inhibitors in the Caliper Life Sciences LC3000, a TTP Mosquito liquid handling instrument was used to place 0.25 μl of an appropriate concentration of inhibitor in 100% DMSO (for a dose response curve calculation) into each well of a 384-well plate.
The reaction was incubated for 90 min at 25° C., and then stopped by the addition of 70 μl of Stop buffer (100 mM HEPES pH 7.5, 0.015% Brij-35, 10 mM EDTA (Sigma, E7889)).
The plate was read on a Caliper LC 3000 in an Off-Chip mobility shift assay format, using the following parameters for a 12-sipper chip: screening pressure −1.8 psi, upstream voltage −2700, downstream voltage −1000. These conditions cause unphosphorylated substrate and phosphorylated product peptide to resolve as separate peaks allowing direct measurement of percentage of conversion of substrate to product.
(§2) The Desktop Profiler utilizes the same prinicipal as the LC 3000 for calculating percentage conversion of a substrate to product. Caliper Life Sciences provided proprietary flash frozen pre-made 384 well plates containing selected kinases. Each column in the 384 well plate contained a particular selected kinase. A second plate, the ‘substrate plate’ contained a mix of fluorescently labeled peptide substrate and ATP. These were arranged in columns so that transfer for substrate plate to enzyme plate provided the correct enzyme with the correct substrate/ATP concentration.
(§3) Compounds were added to a thawed enzyme plate in the desired format, in single concentrations. Reactions were initiated by transfer of the substrate/ATP mix from the substrate plate. The enzyme plate was incubated for 90 mins at 25° C. The reaction was stopped by addition of 70 μl of Stop Buffer (100 mM HEPES pH 7.5, 0.015% Brij-35, 10 mM EDTA (Sigma, E7889)).
Plates were read in a manner identical to that of the LC3000, and the ratio between substrate and product peaks provided the activity of the enzyme in that well.

Aurora Kinase B = Aurora Kinase B (Homo sapiens, UniProt Q96GD4); experiment: Biochemical enzyme assay for Aurora B activity (Caliper mobility shift); settings: LC3000 or Desktop Profiler
Aurora Kinase B, sequence (Q96GD4 whole entry): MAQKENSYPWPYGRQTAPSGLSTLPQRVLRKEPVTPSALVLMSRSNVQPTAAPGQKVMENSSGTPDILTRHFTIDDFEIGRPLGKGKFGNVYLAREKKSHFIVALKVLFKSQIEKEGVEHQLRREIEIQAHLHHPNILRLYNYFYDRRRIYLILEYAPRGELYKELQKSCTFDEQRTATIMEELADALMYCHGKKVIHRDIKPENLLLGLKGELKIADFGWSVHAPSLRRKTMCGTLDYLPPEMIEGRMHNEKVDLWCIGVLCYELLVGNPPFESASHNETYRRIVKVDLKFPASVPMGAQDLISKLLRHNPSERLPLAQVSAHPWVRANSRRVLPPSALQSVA
Protocol: as §1, §2, §3
Plates were read in a manner identical to that of the LC3000, and the ratio between substrate and product peaks provided the activity of the enzyme in that well. This was best represented by a plate heat map which colors each well by percent inhibition as compared to positive and negative controls (no inhibitors and no ATP respectively).

Row | Compound | IC50 (Aurora Kinase A) [nM] | IC50 (Aurora Kinase B) [nM] | other results
1 | Cc1cc(Nc2cc(N3CCN(C)CC3)nc(Sc3ccc(NC(=O)C4CC4)cc3)n2)n[nH]1 [VX-680] | – | – | inhibition of tumor growth [1]: profound inhibition of tumor growth; effect on cell-cycle progression and apoptosis (human tumor types): blocks cell-cycle progression and induces apoptosis
2 | Nc1nc(Nc2ccc(S(N)(=O)=O)cc2)nn1C(=O)c1c(F)cccc1F [JNJ-7706621] | – | – | proliferation of tumor cells [2]: selectively blocked proliferation; inhibition of CDKs and Aurora kinases [3]: potent inhibition
3 | Nc1ccc(NC(=O)c2ccccc2C(F)(F)F)cc1 [Compound 5, N-(4-Aminophenyl)-2-trifluoromethyl-benzamide] | 1 to 300 | 1 to 300 | –
4 | CN(C)CCNC(=O)c1cc2c(Nc3ccc(NC(=O)c4ccccc4)cc3)ncnc2[nH]c1=O [Compound 86, 4-(4-Benzoylamino-phenylamino)-7-oxo-7,8-dihydro-pyrido[2,3-d]pyrimidine-6-carboxylic acid 2-(dimethylamino-ethyl)-amide] | > 1000 | 601 to 1000 | –
5 | O=C(Nc1ccc(Nc2ccnc3[nH]c(=O)c(F)cc23)cc1)c1ccc(F)cc1C(F)(F)F [Compound 96, 4-Fluoro-N-[4-(6-fluoro-7-oxo-7,8-dihydro-[1,8]naphthyridin-4-ylamino)-phenyl]-2 trifluoromethyl-benzamide] | 1 to 300 | 1 to 300 | –
